For 1 compound, viscosity, electrical conductivity and thermal conductivity results are on record in the NIST ThermoML archive (doi:10.1016/j.tca.2017.02.001).

± gives the expanded uncertainty stated by the source.

The conditions of the series: 298.15 K, 101.33 kPa, Liquid.

In general, viscosity refers to the internal friction of a fluid under shear. Regarding `OCCO` [1,2-ethanediol], the viscosity (Cone and plate viscometry) worked out at 16.9 ± 1.7 mPa·s. Further, under “Direct current cell with electrodes”, the electrical conductivity turned out to be 8.5e-05 ± 2e-06 S/m. Moreover, the thermal conductivity (transient hot wire) was 0.2445 ± 0.0098 W/m/K.
